Experimental data as given in US8076338B2, “Kinase modulators and methods of use” (Exelixis, Inc., priority 2004, dated 2011).
Where two headings read alike, the source gives them in different places.

How the values were obtained:
AktK = AktK (Homo sapiens, UniProt P31749); assay: Luciferase-coupled chemiluminescence kinase assay (ATP consumption); format: biochemical; conditions: read-out: AKT-1 IC50
How it was run: (§1)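 Enzyme at 2.5-5 nM was preincubated 30 min at room temperature with compound in Tris pH 7.5, MgCl2, TX-100, DTT, then reacted with ATP for 3 h at ambient temperature. Remaining ATP was quantified by luciferase-luciferin chemiluminescence, with consumption kept at 25-60%; […].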

p70S6K = p70S6K (Homo sapiens, UniProt P23443); assay: as above; format: biochemical
How it was run: as §1

Chain of p70S6K (P23443 whole entry): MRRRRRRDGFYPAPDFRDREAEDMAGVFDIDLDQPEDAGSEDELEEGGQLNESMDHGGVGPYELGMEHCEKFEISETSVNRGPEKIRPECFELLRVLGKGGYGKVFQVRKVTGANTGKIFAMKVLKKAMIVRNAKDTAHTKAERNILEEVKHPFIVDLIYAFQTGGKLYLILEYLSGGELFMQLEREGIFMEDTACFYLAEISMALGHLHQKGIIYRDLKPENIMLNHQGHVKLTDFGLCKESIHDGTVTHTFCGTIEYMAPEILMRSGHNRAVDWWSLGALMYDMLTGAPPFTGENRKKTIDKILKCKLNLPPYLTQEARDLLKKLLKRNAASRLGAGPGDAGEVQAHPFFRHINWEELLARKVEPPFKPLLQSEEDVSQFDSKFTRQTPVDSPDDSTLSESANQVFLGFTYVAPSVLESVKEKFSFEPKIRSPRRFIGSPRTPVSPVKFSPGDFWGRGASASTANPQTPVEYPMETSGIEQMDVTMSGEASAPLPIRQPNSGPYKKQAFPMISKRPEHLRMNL
Chain of AktK (P31749 whole entry): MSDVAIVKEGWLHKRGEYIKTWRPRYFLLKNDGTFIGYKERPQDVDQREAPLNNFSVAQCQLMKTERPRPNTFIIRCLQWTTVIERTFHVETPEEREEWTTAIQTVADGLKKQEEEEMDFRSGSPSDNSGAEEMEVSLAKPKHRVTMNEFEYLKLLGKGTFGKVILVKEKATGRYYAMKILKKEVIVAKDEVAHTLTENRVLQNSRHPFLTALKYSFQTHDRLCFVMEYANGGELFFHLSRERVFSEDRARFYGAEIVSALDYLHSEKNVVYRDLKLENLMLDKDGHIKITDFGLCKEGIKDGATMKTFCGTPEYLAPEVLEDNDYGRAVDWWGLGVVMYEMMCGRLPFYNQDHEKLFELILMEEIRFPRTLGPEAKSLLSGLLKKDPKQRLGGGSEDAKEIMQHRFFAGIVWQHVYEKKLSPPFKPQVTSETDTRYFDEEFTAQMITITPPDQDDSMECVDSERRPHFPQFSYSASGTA

IC50 (AktK) | IC50 (p70S6K) | IC50 (AktK; Table 1, class symbols per key) | IC50 (p70S6K; Table 1, class symbols per key) | Compound
≥ 10000 nM | 100 to 1000 nM | – | – | Cc1ccccc1N1CCN(c2ncnc3[nH]ccc23)CC1 [Entry 301, 4-[4-(2-methylphenyl)piperazin-1-yl]-7H-pyrrolo[2,3-d]pyrimidine]
– | – | < 100 nM | < 100 nM | Cc1c(NCCN2CCCC2)cc(C(=O)C2CC2)cc1N1CCN(c2ncnc3[nH]nc(Br)c23)CC1 [Entry 275, {3-[4-(3-bromo-1H-pyrazolo[3,4-d]pyrimidin-4-yl)piperazin-1-yl]-4-methyl-5-[(2-pyrrolidin-1-ylethyl)amino]phenyl}(cyclopropyl)methanone]
– | – | < 100 nM | < 100 nM | Cc1c(NCCN2CCCC2)cc(OCC2CC2(F)F)cc1N1CCN(c2ncnc3[nH]nc(Br)c23)CC1 (stereo not drawn) [Entry 270, 3-[4-(3-bromo-1H-pyrazolo[3,4-d]pyrimidin-4-yl)piperazin-1-yl]-5-{[(2,2-difluorocyclopro-pyl)methyl]oxy}-2-methyl-N-(2-pyrrolidin-1-ylethyl)aniline]
1000 to 10000 nM | < 100 nM | – | – | CCc1n[nH]c2ncnc(N3CC4CC3CN4c3cccc(Cl)c3)c12 (stereo not drawn) [Entry 344, 4-[5-(3-chlorophenyl)-2,5-diazabicyclo[2.2.1]hept-2-yl]-3-ethyl-1H-pyrazolo[3,4-d]pyrimidine]
– | – | < 100 nM | < 100 nM | Cc1c(CCCN2CCCC2)cc(Cl)cc1N1CCN(c2ncnc3[nH]nc(C#CCO)c23)CC1 [Entry 182, 3-(4-{4-[5-chloro-2-methyl-3-(3-pyrrolidin-1-ylpropyl)phenyl]piperazin-1-yl}-1H-pyrazolo[3,4-d]pyrimidin-3-yl)prop-2-yn-1-ol]
– | – | 100 to 1000 nM | < 100 nM | Cc1c(Br)cc(OCC(F)(CF)CF)cc1N1CCN(c2ncnc3[nH]nc(Br)c23)CC1 [Entry 250, 3-bromo-4-[4-(3-bromo-5-{[2,3-difluoro-2-(fluoromethyl)propyl]oxy}-2-methylphenyl)pipera-zin-1-yl]-1H-pyrazolo[3,4-d]pyrimidine]
– | – | ≥ 10000 nM | 100 to 1000 nM | COc1ccc(N2CCN(c3ncnc4[nH]nc(Br)c34)CC2)c(OC)c1 [Entry 106, 4-{4-[2,4-bis(methyloxy)phenyl]piperazin-1-yl}-3-bromo-1H-pyrazolo[3,4-d]pyrimidine]
– | – | ≥ 10000 nM | < 100 nM | COc1ccccc1N1CCN(c2ncnc3[nH]nc(Br)c23)CC1 [Entry 66, 3-bromo-4-{4-[2-(methyloxy)phenyl]piperazin-1-yl}-1H-pyrazolo[3,4-d]pyrimidine]
– | – | 100 to 1000 nM | < 100 nM | Cc1ccc(C(=O)N(C)C)cc1N1CCN(c2ncnc3[nH]nc(Br)c23)CC1 [Entry 196, 3-[4-(3-bromo-1H-pyrazolo[3,4-d]pyrimidin-4-yl)piperazin-1-yl]-N,N,4-trimethylbenzamide]
– | – | 100 to 1000 nM | < 100 nM | Cc1ccc(Cl)cc1N1CCN(c2ncnc3[nH]nc(Br)c23)C[C@@H]1C [Entry 164, 3-bromo-4-[(3S)-4-(5-chloro-2-methylphenyl)-3-methylpiperazin-1-yl]-1H-pyrazolo[3,4-d]pyrimidine]
1000 to 10000 nM | 1000 to 10000 nM | – | – | COc1cccc(-c2n[nH]c3ncnc(N4CCN(c5cc(Cl)ccc5C)CC4)c23)c1 [Entry 365, 4-[4-(5-chloro-2-methylphenyl)piperazin-1-yl]-3-[3-(methyloxy)phenyl]-1H-pyrazolo[3,4-d]pyrimidine]
1000 to 10000 nM | < 100 nM | – | – | 4-[4-(5-chloro-2-methylphenyl)piperazin-1-yl]-3-(2-methylpropyl)-1H-pyrazolo[3,4-d]pyrimidine [Entry 355]

Further lines, the compound ahead of its results:

Compound | IC50 (AktK) | IC50 (p70S6K) | IC50 (AktK; Table 1, class symbols per key) | IC50 (p70S6K; Table 1, class symbols per key)
CCc1n[nH]c2ncnc(N3CCN(c4ccc(OCCN5CCOCC5)c(Cl)c4)CC3)c12 [Entry 345, 4-(4-{3-chloro-4-[(2-morpholin-4-ylethyl)oxy]phe-nyl}piperazin-1-yl)-3-ethyl-1H-pyrazolo[3,4-d]pyrimidine] | ≥ 10000 nM | 1000 to 10000 nM | – | –
CCS(=O)(=O)c1cc(NCCN2CCCC2)c(C)c(N2CCN(c3ncnc4[nH]nc(Br)c34)CC2)c1 [Entry 260, 3-[4-(3-bromo-1H-pyrazolo[3,4-d]pyrimidin-4-yl)piperazin-1-yl]-5-(ethylsulfonyl)-2-methyl-N-(2-pyrrolidin-1-ylethyl)aniline] | – | – | < 100 nM | < 100 nM
CCc1n[nH]c2ncnc(N3CCN(c4cccc(Cl)c4)C(CO)C3)c12 (stereo not drawn) [Entry 379, [1-(3-chlorophenyl)-4-(3-ethyl-1H-pyrazolo[3,4-d]pyrimidin-4-yl)piperazin-2-yl]methanol] | 1000 to 10000 nM | < 100 nM | – | –
CCc1n[nH]c2ncnc(N3CCN(c4cc(F)cc(NCCN5CCCC5)c4C)CC3)c12 [Entry 78, 3-[4-(3-ethyl-1H-pyrazolo[3,4-d]pyrimidin-4-yl)piperazin-1-yl]-5-fluoro-2-methyl-N-(2-pyrrolidin-1-ylethyl)aniline] | – | – | 1000 to 10000 nM | < 100 nM
Cc1ccc(Cl)cc1N1CCN(c2ncnc3[nH]nc(/C=C/C(=O)O)c23)CC1 [Entry 369, (2E)-3-{4-[4-(5-chloro-2-methylphenyl)piperazin-1-yl]-1H-pyrazolo[3,4-d]pyrimidin-3-yl}prop-2-enoic acid] | 100 to 1000 nM | < 100 nM | – | –
3-bromo-4-(4-{4-methyl-3′-[(2-pyrrolidin-1-yl-ethyl)oxy]biphenyl-3-yl}piperazin-1-yl)-1H-pyrazolo[3,4-d]pyrimidine [Entry 290] | < 100 nM | < 100 nM | – | –
Fc1ccc(N2CCN(c3ncnc4[nH]nc(Br)c34)CC2)cc1 [Entry 153, 3-bromo-4-[4-(4-fluorophenyl)piperazin-1-yl]-1H-pyrazolo[3,4-d]pyrimidine] | – | – | ≥ 10000 nM | 100 to 1000 nM
Cc1ccc(Cl)cc1N1CCN(c2ncnc3[nH]nc(CCCO)c23)CC1 [Entry 371, 3-{4-[4-(5-chloro-2-methylphenyl)piperazin-1-yl]-1H-pyrazolo[3,4-d]pyrimidin-3-yl}propan-1-ol] | 1000 to 10000 nM | < 100 nM | – | –
Cc1ccc(C(=O)Nc2ccccc2)cc1N1CCN(c2ncnc3[nH]nc(Br)c23)C[C@@H]1CO [Entry 200, 3-[(2R)-4-(3-bromo-1H-pyrazolo[3,4-d]pyrimidin-4-yl)-2-(hydroxymethyl)piperazin-1-yl]-4-methyl-N-phenylbenzamide] | – | – | < 100 nM | < 100 nM
Cc1c(CCCN2CCN(C)CC2)cc(Cl)cc1N1CCN(c2ncnc3[nH]nc(C(F)(F)F)c23)CC1 [Entry 92, 4-(4-{5-chloro-2-methyl-3-[3-(4-methylpiperazin-1-yl)propyl]phenyl}piperazin-1-yl)-3-(trifluoro-methyl)-1H-pyrazolo[3,4-d]pyrimidine] | – | – | 100 to 1000 nM | < 100 nM
Cc1c(NCCN2CCCC2)cc(Cl)cc1N1CCN(c2ncnc3[nH]nc(C(C)C)c23)CC1 [Entry 138, 5-chloro-2-methyl-3-{4-[3-(1-methylethyl)-1H-pyrazolo[3,4-d]pyrimidin-4-yl]piperazin-1-yl}-N-(2-pyrrolidin-1-ylethyl)aniline] | – | – | 1000 to 10000 nM | < 100 nM
Brc1n[nH]c2ncnc(N3CCN(c4ccc(OCc5ccccc5)cc4)CC3)c12 [Entry 125, 3-bromo-4-(4-{4-[(phenylmethyl)oxy]phenyl}piperazin-1-yl)-1H-pyrazolo[3,4-d]pyrimidine] | – | – | ≥ 10000 nM | 100 to 1000 nM
CCN(CC)CCCc1n[nH]c2ncnc(N3CCN(c4cc(Cl)ccc4C)CC3)c12 [Entry 399, 3-{4-[4-(5-chloro-2-methylphenyl)piperazin-1-yl]-1H-pyrazolo[3,4-d]pyrimidin-3-yl}-N,N-diethylpropan-1-amine] | 1000 to 10000 nM | 1000 to 10000 nM | – | –
c1ccc(N2CCN(c3ncnc4[nH]cnc34)CC2)cc1 [Entry 293, 6-(4-phenylpiperazin-1-yl)-9H-purine] | ≥ 10000 nM | 1000 to 10000 nM | – | –
Cc1ccc(Cl)cc1N1CCN(c2ncnc3[nH]nc(/C=C4/C[C@H]5CNC[C@H]5C4)c23)CC1 [Entry 396, 4-[4-(5-chloro-2-methylphenyl)piperazin-1-yl]-3-[(E)-(3aR,6aS)-hexahydrocyclopenta[c]pyrrol-5(1H)-ylidenemethyl]-1H-pyrazolo[3,4-d]pyrimidine] | 1000 to 10000 nM | 1000 to 10000 nM | – | –
Cc1c(NCCN2CCCC2)cc(S(C)(=O)=O)cc1N1CCN(c2ncnc3[nH]nc(Br)c23)CC1 [Entry 261, 3-[4-(3-bromo-1H-pyrazolo[3,4-d]pyrimidin-4-yl)piperazin-1-yl]-2-methyl-5-(methylsulfonyl)-N-(2-pyrrolidin-1-ylethyl)aniline] | – | – | 100 to 1000 nM | < 100 nM
CCc1n[nH]c2ncnc(N3CCN(c4cc(Cl)cc(CNCCN(C)C)c4OC)CC3)c12 [Entry 378, N′-{[5-chloro-3-[4-(3-ethyl-1H-pyrazolo[3,4-d]pyrimidin-4-yl)piperazin-1-yl]-2-(methyloxy)phe-nyl]methyl}-N,N-dimethylethane-1,2-diamine] | 1000 to 10000 nM | 100 to 1000 nM | – | –
CCc1n[nH]c2ncnc(N3CCN(c4cc(Cl)cc(C(=O)N5CCN(C)CC5)c4OC)CC3)c12 [Entry 375, 4-(4-{5-chloro-2-(methyloxy)-3-[(4-methylpipera-zin-1-yl)carbonyl]phenyl}piperazin-1-yl)-3-ethyl-1H-pyrazolo[3,4-d]pyrimidine] | ≥ 10000 nM | 100 to 1000 nM | – | –
c1ccc(N2CCN(c3ncnc4[nH]ccc34)CC2)cc1 [Entry 295, 4-(4-phenylpiperazin-1-yl)-7H-pyrrolo[2,3-d]pyrimidine] | ≥ 10000 nM | 100 to 1000 nM | – | –
Cc1noc(-c2cc(NCCN3CCCC3)c(C)c(N3CCN(c4ncnc5[nH]nc(Br)c45)CC3)c2)n1 [Entry 242, 3-[4-(3-bromo-1H-pyrazolo[3,4-d]pyrimidin-4-yl)piperazin-1-yl]-2-methyl-5-(3-methyl-1,2,4-oxadiazol-5-yl)-N-(2-pyrrolidin-1-ylethyl)aniline] | – | – | < 100 nM | < 100 nM
CCc1n[nH]c2ncnc(N3CCN(c4cc(Cl)c(O)cc4C)CC3)c12 [Entry 381, 2-chloro-4-[4-(3-ethyl-1H-pyrazolo[3,4-d]pyrimidin-4-yl)piperazin-1-yl]-5-methylphenol] | 1000 to 10000 nM | < 100 nM | – | –
